{"source": "paper PMC5218480", "about": "(PLoS ONE, 2017)", "test_system": "MV-4-11 cells", "assay": "Gene expression microarray analysis (Affymetrix PrimeView) and GSEA", "type": "cell-based, human", "design": "RFU PODN (11730768_x_at) / Fold change /veh PODN (11730768_x_at) / RFU LINC00158 (11744669_a_at) / Fold change /veh LINC00158 (11744669_a_at) / RFU DUSP10 (11751237_a_at) / Fold change /veh DUSP10 (11751237_a_at) / RFU ID3 (11757404_x_at) / Fold change /veh ID3 (11757404_x_at) / RFU PLEKHG5 (11737974_s_at) / Fold change /veh PLEKHG5 (11737974_s_at) / RFU LRRC4B (11730491_at) / Fold change /veh LRRC4B (11730491_at) / RFU GIMAP4 (11747438_a_at) / Fold change /veh GIMAP4 (11747438_a_at) / RFU KRT8 (11758183_x_at) / Fold change /veh KRT8 (11758183_x_at) / RFU CNN1 (11734310_a_at) / Fold change /veh CNN1 (11734310_a_at) / RFU VPS37D (11726825_at) / Fold change /veh VPS37D (11726825_at) / RFU C10orf10 (11716522_x_at) / Fold change /veh C10orf10 (11716522_x_at) / RFU KIR2DL2 /// KIR2DL4 /// KIR2DL5A /// KIR2DL5B /// KIR2DS1 /// KIR2DS2 /// KIR2DS3 /// KIR2DS4 /// KIR3DL3 /// KIR3DL3 /// KIR3DS1 (11738374_at) / Fold change /veh KIR2DL2 /// KIR2DL4 /// KIR2DL5A /// KIR2DL5B /// KIR2DS1 /// KIR2DS2 /// KIR2DS3 /// KIR2DS4 /// KIR3DL3 /// KIR3DL3 /// KIR3DS1 (11738374_at) / RFU C1QL1 (11718748_at) / Fold change /veh C1QL1 (11718748_at) / RFU TMPRSS4 (11747572_a_at) / Fold change /veh TMPRSS4 (11747572_a_at) / RFU HAMP (11756126_x_at) / Fold change /veh HAMP (11756126_x_at) / RFU RNFT2 (11725882_a_at) / Fold change /veh RNFT2 (11725882_a_at) / RFU NR4A2 (11747474_a_at) / Fold change /veh NR4A2 (11747474_a_at) / RFU ABCC12 (11746883_a_at) / Fold change /veh ABCC12 (11746883_a_at) / RFU TMEM136 (11760407_x_at) / Fold change /veh TMEM136 (11760407_x_at) / RFU CLDN22 /// WWC2 (11732394_at) / Fold change /veh CLDN22 /// WWC2 (11732394_at) / RFU HLA-DPB1 (11760878_x_at) / Fold change /veh HLA-DPB1 (11760878_x_at) / RFU SPINT1 (11716480_a_at) / Fold change /veh SPINT1 (11716480_a_at) / RFU GAP43 (11754022_s_at) / Fold change /veh GAP43 (11754022_s_at) / RFU A4GNT (11735810_at) / Fold change /veh A4GNT (11735810_at) / RFU PRB3 (11715151_x_at) / Fold change /veh PRB3 (11715151_x_at) / RFU TUBB4B (11761932_at) / Fold change /veh TUBB4B (11761932_at) / RFU CAPN14 (11732068_a_at) / Fold change /veh CAPN14 (11732068_a_at) / RFU TMCC2 (11721928_a_at) / Fold change /veh TMCC2 (11721928_a_at) / RFU IRGQ (11745062_a_at) / Fold change /veh IRGQ (11745062_a_at) / RFU FAM174B (11720279_a_at) / Fold change /veh FAM174B (11720279_a_at) / RFU TMPRSS4 (11748680_a_at) / Fold change /veh TMPRSS4 (11748680_a_at) / RFU FAM212B (11763350_a_at) / Fold change /veh FAM212B (11763350_a_at) / RFU PLEKHG5 (11743358_a_at) / Fold change /veh PLEKHG5 (11743358_a_at) / RFU ZSCAN30 (11745921_a_at) / Fold change /veh ZSCAN30 (11745921_a_at) / RFU CMKLR1 (11741424_a_at) / Fold change /veh CMKLR1 (11741424_a_at) / RFU LOC101060620 /// MAPK8IP1 (11723275_at) / Fold change /veh LOC101060620 /// MAPK8IP1 (11723275_at) / RFU SPTSSB (11747773_x_at) / Fold change /veh SPTSSB (11747773_x_at) / RFU PRSS12 (11739890_at) / Fold change /veh PRSS12 (11739890_at) / RFU BIN1 (11741810_x_at) / Fold change /veh BIN1 (11741810_x_at) / RFU WNT11 (11732464_a_at) / Fold change /veh WNT11 (11732464_a_at) / RFU C10orf10 (11716521_a_at) / Fold change /veh C10orf10 (11716521_a_at) / RFU C5orf56 (11738089_at) / Fold change /veh C5orf56 (11738089_at) / RFU CYB561 (11721691_x_at) / Fold change /veh CYB561 (11721691_x_at) / RFU ANKRD19P (11752326_a_at) / Fold change /veh ANKRD19P (11752326_a_at) / RFU OR2T12 /// OR2T33 /// OR2T8 (11738714_s_at) / Fold change /veh OR2T12 /// OR2T33 /// OR2T8 (11738714_s_at) / RFU VCAN (11748164_a_at) / Fold change /veh VCAN (11748164_a_at) / RFU JSRP1 (11732532_at) / Fold change /veh JSRP1 (11732532_at) / RFU KRTAP10-11 (11738290_x_at) / Fold change /veh KRTAP10-11 (11738290_x_at) / RFU MYO3A (11730013_a_at) / Fold change /veh MYO3A (11730013_a_at) / RFU EBF3 (11725865_a_at) / Fold change /veh EBF3 (11725865_a_at) / RFU CAMK2N1 (11719241_x_at) / Fold change /veh CAMK2N1 (11719241_x_at) / RFU C5orf56 (11738088_a_at) / Fold change /veh C5orf56 (11738088_a_at) / RFU OLFML3 (11715873_a_at) / Fold change /veh OLFML3 (11715873_a_at) / RFU LOC100653217 /// NTM (11731650_a_at) / Fold change /veh LOC100653217 /// NTM (11731650_a_at) / RFU MAPK11 (11762145_a_at) / Fold change /veh MAPK11 (11762145_a_at) / RFU FIZ1 (11724087_x_at) / Fold change /veh FIZ1 (11724087_x_at) / RFU OASL (11726364_x_at) / Fold change /veh OASL (11726364_x_at) / RFU SOX15 (11748057_x_at) / Fold change /veh SOX15 (11748057_x_at) / RFU CD79A (11719716_a_at) / Fold change /veh CD79A (11719716_a_at) / RFU HIST1H1D (11736915_at) / Fold change /veh HIST1H1D (11736915_at) / RFU CASKIN2 (11723855_a_at) / Fold change /veh CASKIN2 (11723855_a_at) / RFU LOC730098 (11760151_x_at) / Fold change /veh LOC730098 (11760151_x_at) / RFU OR4N2 (11742367_at) / Fold change /veh OR4N2 (11742367_at) / RFU PRRT2 (11749266_a_at) / Fold change /veh PRRT2 (11749266_a_at) / RFU SNX32 (11753110_a_at) / Fold change /veh SNX32 (11753110_a_at) / RFU CDHR5 (11726645_a_at) / Fold change /veh CDHR5 (11726645_a_at) / RFU RCAN1 (11760418_a_at) / Fold change /veh RCAN1 (11760418_a_at) / RFU FAM167A (11723789_a_at) / Fold change /veh FAM167A (11723789_a_at) / RFU FAM26E (11764081_at) / Fold change /veh FAM26E (11764081_at) / RFU ISYNA1 (11749810_s_at) / Fold change /veh ISYNA1 (11749810_s_at) / RFU ACY1 (11761880_at) / Fold change /veh ACY1 (11761880_at) / RFU 11764098_at / Fold change /veh 11764098_at / RFU SAMD14 (11745864_x_at) / Fold change /veh SAMD14 (11745864_x_at) / RFU NPB (11741838_a_at) / Fold change /veh NPB (11741838_a_at) / RFU TMPRSS6 (11731388_a_at) / Fold change /veh TMPRSS6 (11731388_a_at) / RFU KRTAP10-2 (11738614_at) / Fold change /veh KRTAP10-2 (11738614_at) / RFU ARHGAP8 /// PRR5-ARHGAP8 (11727945_x_at) / Fold change /veh ARHGAP8 /// PRR5-ARHGAP8 (11727945_x_at) / RFU KRTAP5-7 /// NADSYN1 (11734609_at) / Fold change /veh KRTAP5-7 /// NADSYN1 (11734609_at) / RFU RASL12 (11751679_a_at) / Fold change /veh RASL12 (11751679_a_at) / RFU CDKN2B (11736163_a_at) / Fold change /veh CDKN2B (11736163_a_at) / RFU PRF1 (11729649_at) / Fold change /veh PRF1 (11729649_at) / RFU, ZNF638 /// ZNF638-IT1 / Fold change vs veh, ZNF638 /// ZNF638-IT1 / RFU, PANK3 / Fold change vs veh, PANK3 / RFU, SH3YL1 / Fold change vs veh, SH3YL1 / RFU, ZEB2 / Fold change vs veh, ZEB2 / RFU, NRIP1 / Fold change vs veh, NRIP1 / RFU, PTTG1IP / Fold change vs veh, PTTG1IP / RFU, CAPN2 / Fold change vs veh, CAPN2 / RFU, MED14 / Fold change vs veh, MED14 / RFU, SNORA58 / Fold change vs veh, SNORA58 / RFU, C1orf63 / Fold change vs veh, C1orf63 / RFU, LRRFIP1 / Fold change vs veh, LRRFIP1 / RFU, NDUFAF7 / Fold change vs veh, NDUFAF7 / RFU, SLC12A2 / Fold change vs veh, SLC12A2 / RFU, IBTK / Fold change vs veh, IBTK / RFU, ESF1 / Fold change vs veh, ESF1 / Fold change vs veh, TMEM50B / RFU, TAOK1 / Fold change vs veh, TAOK1 / RFU, ACBD3 / Fold change vs veh, ACBD3 / RFU, TMA16 / Fold change vs veh, TMA16 / RFU, RWDD3 / Fold change vs veh, RWDD3 / RFU, BCAT1 / Fold change vs veh, BCAT1 / RFU, EDEM3 / Fold change vs veh, EDEM3 / RFU, TMEM33 / Fold change vs veh, TMEM33 / RFU, WDR75 / Fold change vs veh, WDR75 / RFU, AHCTF1 / Fold change vs veh, AHCTF1 / RFU, TFRC / Fold change vs veh, TFRC / RFU, ZDHHC17 / Fold change vs veh, ZDHHC17 / RFU, NOM1 / Fold change vs veh, NOM1 / RFU, ARL8B / Fold change vs veh, ARL8B / RFU, ZBTB11 / Fold change vs veh, ZBTB11 / RFU, TAMM41 / Fold change vs veh, TAMM41 / RFU, KIAA1704 /// LOC100996395 / Fold change vs veh, KIAA1704 /// LOC100996395 / RFU, ING1 / Fold change vs veh, ING1 / RFU, TRMT61B / Fold change vs veh, TRMT61B / RFU, FUBP3 / Fold change vs veh, FUBP3 / RFU, TP53 / Fold change vs veh, TP53 / RFU, TNKS2 / Fold change vs veh, TNKS2 / RFU, ZFP14 / Fold change vs veh, ZFP14 / RFU, ACTR2 / Fold change vs veh, ACTR2 / RFU, PPP3R1 / Fold change vs veh, PPP3R1 / RFU, PIK3R1 / Fold change vs veh, PIK3R1 / RFU, HNRNPA1 / Fold change vs veh, HNRNPA1 / RFU, RNF170 / Fold change vs veh, RNF170 / RFU, ZNF28 / Fold change vs veh, ZNF28 / RFU, RNGTT / Fold change vs veh, RNGTT / RFU, OGT / Fold change vs veh, OGT / RFU, BRD1 / Fold change vs veh, BRD1 / RFU, MARS / Fold change vs veh, MARS / RFU, ZNF655 / Fold change vs veh, ZNF655 / RFU, FAHD1 / Fold change vs veh, FAHD1 / RFU, BDP1 / Fold change vs veh, BDP1 / RFU, LRRCC1 / Fold change vs veh, LRRCC1 / RFU, ARID1A / Fold change vs veh, ARID1A / RFU, ZNF146 / Fold change vs veh, ZNF146 / RFU, ZNF330 / Fold change vs veh, ZNF330 / RFU, GPN3 / Fold change vs veh, GPN3 / RFU, C9orf123 / Fold change vs veh, C9orf123 / RFU, N4BP2L2 / Fold change vs veh, N4BP2L2 / RFU, ARFIP1 / Fold change vs veh, ARFIP1 / RFU, FAM179B / Fold change vs veh, FAM179B / RFU, BCL10 / Fold change vs veh, BCL10 / RFU, UHRF1BP1L / Fold change vs veh, UHRF1BP1L / RFU, BET1 / Fold change vs veh, BET1 / RFU, CNOT2 / Fold change vs veh, CNOT2 / RFU, ZNF268 / Fold change vs veh, ZNF268 / Fold change vs veh, ZNF507 / RFU, DGCR2 / Fold change vs veh, DGCR2 / RFU, WDSUB1 / Fold change vs veh, WDSUB1 / Fold change vs veh, HSP90B1 /// MIR3652 / RFU, ADSS / Fold change vs veh, ADSS / RFU, GK / Fold change vs veh, GK / RFU, ZNF148 / Fold change vs veh, ZNF148 / RFU, TAF9 / Fold change vs veh, TAF9 / RFU, SLC1A5 / Fold change vs veh, SLC1A5 / RFU, SLMO2 / Fold change vs veh, SLMO2 / RFU, ABCC4 / Fold change vs veh, ABCC4 / RFU, LOC101060439 /// RAP1B / Fold change vs veh, LOC101060439 /// RAP1B / RFU, RFX7 / Fold change vs veh, RFX7 / RFU, GTPBP10 / Fold change vs veh, GTPBP10 / RFU, CNEP1R1 / Fold change vs veh, CNEP1R1 / RFU, BIVM-ERCC5 /// ERCC5 / Fold change vs veh, BIVM-ERCC5 /// ERCC5 / RFU, ILF3 / Fold change vs veh, ILF3 / RFU 11762660_at / Fold change /veh 11762660_at / RFU VCAN (11757783_s_at) / Fold change /veh VCAN (11757783_s_at) / RFU DDX43 (11728927_at) / Fold change /veh DDX43 (11728927_at) / RFU KRT8 (11758188_x_at) / Fold change /veh KRT8 (11758188_x_at) / RFU NKD1 (11759106_at) / Fold change /veh NKD1 (11759106_at) / RFU SRD5A1 (11742802_a_at) / Fold change /veh SRD5A1 (11742802_a_at) / RFU TPSAB1 /// TPSB2 (11721975_s_at) / Fold change /veh TPSAB1 /// TPSB2 (11721975_s_at) / RFU GSTM3 (11746129_a_at) / Fold change /veh GSTM3 (11746129_a_at) / RFU IL23R (11737362_x_at) / Fold change /veh IL23R (11737362_x_at) / RFU TMEM51 (11727254_a_at) / Fold change /veh TMEM51 (11727254_a_at) / RFU PIWIL2 (11732686_x_at) / Fold change /veh PIWIL2 (11732686_x_at) / RFU ORM1 (11744905_x_at) / Fold change /veh ORM1 (11744905_x_at) / RFU CCDC152 (11743942_at) / Fold change /veh CCDC152 (11743942_at) / RFU ECM1 (11717891_a_at) / Fold change /veh ECM1 (11717891_a_at) / RFU IL23R (11748794_a_at) / Fold change /veh IL23R (11748794_a_at) / RFU TNFAIP8L3 (11732012_x_at) / Fold change /veh TNFAIP8L3 (11732012_x_at) / RFU MBOAT4 (11741988_at) / Fold change /veh MBOAT4 (11741988_at) / RFU 11764193_at / Fold change /veh 11764193_at / RFU TMEM53 (11763286_at) / Fold change /veh TMEM53 (11763286_at) / RFU MAGEB2 (11727129_at) / Fold change /veh MAGEB2 (11727129_at) / RFU TMEM200A (11744735_a_at) / Fold change /veh TMEM200A (11744735_a_at) / RFU CCDC152 (11751479_a_at) / Fold change /veh CCDC152 (11751479_a_at) / RFU FAM211A (11726209_a_at) / Fold change /veh FAM211A (11726209_a_at) / RFU RGS16 (11746705_a_at) / Fold change /veh RGS16 (11746705_a_at) / RFU VCAN (11755009_s_at) / Fold change /veh VCAN (11755009_s_at) / RFU RHOB (11743442_s_at) / Fold change /veh RHOB (11743442_s_at) / RFU RGS16 (11720943_a_at) / Fold change /veh RGS16 (11720943_a_at) / RFU RGS16 (11720944_at) / Fold change /veh RGS16 (11720944_at) / RFU, VPS4B / Fold change vs veh, VPS4B / RFU, CREB1 / Fold change vs veh, CREB1 / RFU, DNAJC13 / Fold change vs veh, DNAJC13 / RFU, GNAQ / Fold change vs veh, GNAQ / RFU, CDK5R1 / Fold change vs veh, CDK5R1 / RFU, ZRANB3 / Fold change vs veh, ZRANB3 / RFU, CUL4A / Fold change vs veh, CUL4A / RFU, CCNY / Fold change vs veh, CCNY / RFU, UFL1 / Fold change vs veh, UFL1 / RFU, COG3 / Fold change vs veh, COG3 / RFU, DIAPH2 / Fold change vs veh, DIAPH2 / RFU, SKA2 / Fold change vs veh, SKA2 / RFU, AFF3 / Fold change vs veh, AFF3 / RFU, LMF1 / Fold change vs veh, LMF1 / RFU, IPO11 / Fold change vs veh, IPO11 / RFU, DFFB / Fold change vs veh, DFFB / RFU, FOXP1 / Fold change vs veh, FOXP1 / RFU, CARD8 / Fold change vs veh, CARD8 / RFU, STRN3 / Fold change vs veh, STRN3 / RFU, ADK / Fold change vs veh, ADK / RFU, RASSF2 / Fold change vs veh, RASSF2 / RFU, WIPF1 / Fold change vs veh, WIPF1 / RFU, LARP1B / Fold change vs veh, LARP1B / RFU, RASA1 / Fold change vs veh, RASA1 / RFU, RB1 / Fold change vs veh, RB1 / RFU, PPFIA1 / Fold change vs veh, PPFIA1 / RFU, MAT2A / Fold change vs veh, MAT2A / RFU, CCT5 / Fold change vs veh, CCT5 / RFU, WDR92 / Fold change vs veh, WDR92 / RFU, CUX1 / Fold change vs veh, CUX1 / RFU, TTC7A / Fold change vs veh, TTC7A / RFU, TMEM135 / Fold change vs veh, TMEM135 / RFU, DEPTOR / Fold change vs veh, DEPTOR / RFU, CPM / Fold change vs veh, CPM / RFU, DNAJB6 / Fold change vs veh, DNAJB6 / RFU, CACNA2D3 / Fold change vs veh, CACNA2D3 / RFU, DTX4 / Fold change vs veh, DTX4 / RFU, TFCP2 / Fold change vs veh, TFCP2 / RFU, GMCL1 /// GMCL1P1 / Fold change vs veh, GMCL1 /// GMCL1P1 / RFU, AEBP2 / Fold change vs veh, AEBP2 / RFU, SNHG1 /// SNORD22 /// SNORD25 /// SNORD26 /// SNORD27 /// SNORD28 /// SNORD29 /// SNORD31 / Fold change vs veh, SNHG1 /// SNORD22 /// SNORD25 /// SNORD26 /// SNORD27 /// SNORD28 /// SNORD29 /// SNORD31 / Fold change (Aza/veh), C12orf56 (ProbeSet 11735607_a_at) / Fold change (ACY-1035/veh), C12orf56 (ProbeSet 11735607_a_at) / Fold change (Aza/veh), FGFR1OP (ProbeSet 11751329_s_at) / Fold change (ACY-1035/veh), FGFR1OP (ProbeSet 11751329_s_at) / Fold change (Aza/veh), VPS36 (ProbeSet 11739960_a_at) / Fold change (ACY-1035/veh), VPS36 (ProbeSet 11739960_a_at) / RFU SYPL1 (11715823_x_at) / Fold change /veh SYPL1 (11715823_x_at) / RFU IGFBP7 (11715501_s_at) / Fold change /veh IGFBP7 (11715501_s_at) / RFU REEP3 (11722064_at) / Fold change /veh REEP3 (11722064_at) / RFU IGLL1 (11728026_x_at) / Fold change /veh IGLL1 (11728026_x_at): dose or concentration left out as unconfirmed", "settings": "ProbeSet 11717876_a_at; LIST D"}
{"smiles": "Nc1ccc(-c2cccs2)cc1NC(=O)c1ccc2c(c1)cc(C1CC1)n2CCN1CCOCC1", "note": "[ACY-1035]", "values": [{"measurement": "RFU, PPFIA1", "result": 30.94, "unit": "RFU"}]}
